Columns and labels:
locomotor activity = assay: Open field test; settings: buspirone 0.1-30 mg/kg i.p., pentobarbital 15 mg/kg i.p.; 60 minutes observation period; compared to vehicle
[1] = tested on: rats' motor performance and coordination; assay: Rotarod test; settings: buspirone 0.1-30 mg/kg i.p., pentobarbital 15 mg/kg i.p., 5 or 30 min before test; compared to vehicle
[2] = tested on: unilaterally 6-OHDA-lesioned rats; assay: L-DOPA induced AIMs test in the 6-OHDA rat model; format: in vivo; settings: previously shown by the applicant
Parkinson's disease = settings: cited from earlier work
LID = settings: cited from earlier work

Row | Compound | Open field performance (locomotor activity) (locomotor activity) | Rotarod performance (time spent on the accelerating rod) [1] | L-DOPA-induced involuntary movements [2] | disability ratings (Parkinson's disease; 100 mg/day) | dyskinesia (Parkinson's disease; 100 mg/day) | effects on Parkinson's disease or dyskinesia (Parkinson's disease; 10-60 mg/day) | effects compared to placebo (LID; phase 2b and 3 studies) | LID (LID; pre-clinical and clinical studies)
1 | CCCC(C)C1(CC)C(=O)NC(=O)NC1=O (stereo not shown) [Pentobarbital] | significantly reduced motor performance | significantly reduces time spent on the rotarod |  |  |  |  |  | 
2 | O=C1CC2(CCCC2)CC(=O)N1CCCCN1CCN(c2ncccn2)CC1 [buspirone, 8-[4-(4-pyrimidin-2-ylpiperazin-1-yl)butyl]-8-azaspiro[4.5]decane-7,9-dione] | dose dependently is able to affect performance in the open field test | affect performance in the rotarod model in a dose dependent manner | dose dependently reduce L-DOPA-induced involuntary movements | significant worsening of disability ratings | reduced dyskinesia | did not have any effects on Parkinson's disease or dyskinesia |  | 
3 | Fc1ccc(-c2cncc(CNC[C@H]3CCc4ccccc4O3)c2)cc1 [sarizotan, 1-[(2R)-3,4-dihydro-2H-chromen-2-yl]-N-([5-(4-fluorophenyl)pyridin-3-yl]methyl)methanamine] |  |  |  |  |  |  | no significant effects | reduced LID
